{"source": "patent US20090298068A1", "about": "“METHOD AND TEST KIT FOR THE DIAGNOSIS AND/OR MAKING PREDICTIONS ABOUT AND/OR FOR THE ASSESSMENT OF THE EFFICACY OF THERAPEUTIC AGENTS FOR THE TREATMENT OF OVARIAN CANCER AND METHOD OF PLANNING A REGIMEN FOR THE TREATMENT OF OVARIAN CANCER” (priority 2006, published 2009)", "tested_on": "TUSC3 expression in the hypermethylated MZ6 cell line", "assay": "Restoration of TUSC3 expression by DNA demethylation in ovarian cancer cell lines (real time RT-PCR)", "format": "cell-based, human", "conditions": "72-hour treatment", "procedure": "In addition, 32 ovarian cancer cell lines were studied, which were started from ovarian cancer tissue samples of 28 patients and cultivated as described (Mobus V1 Gerharz C D, Press U, et al, Morphological, immunohistochemical and biochemical characterization of 6 newly established human ovarian carcinoma cell lines. Int J Cancer. 1992; 52:76-84).\nFor bisulfite treatment, 1 μg genomic DNA was digested with the restriction enzymes Hind III and Xba I, precipitated, dissolved and denatured for 20 minutes in 0.35 M NaOH. Then, the DNA was treated in 8 cycles (2 hrs. 75° C. and 1 min. 95° C.) with 1.75 M sodium bisulfite, 5.23 M urea and 0.52 mM hydroquinone in a PCR cycler. Using the QIAEX II Gel Extraction Kit (Qiagen, Hilden, Germany), the DNA was cleaned and the reaction was ended with 0.32 M NaOH (20 min. 37° C.). Finally, the DNA was precipitated with 1 μl glycogen with NH4 acetate EtOH as the carrier, rinsed with 70% EtOH and dissolved in 40 μl H2O. […] The PCR products were analyzed on 3% agarose gel, stained with ethidium bromide. […] DNA demethylation of the cancer cell lines was carried out by a 72-hour treatment with 1 and 2.5 μM 5-aza-deoxycytidine (Sigma-Aldrich, St. Louis, Mo., USA) in cell culture medium, and the relative TUSC3 expression was evaluated by real time RT-PCR as described below. […]"}
{"smiles": "Nc1ncn([C@H]2C[C@H](O)[C@@H](CO)O2)c(=O)n1", "note": "[5-aza-deoxycytidine]", "values": [{"measurement": "TUSC3 expression, times greater than sham-treated samples (relative to B-2-microglobulin)", "setting": "2.5 μM, MZ6 cell line, sham-treated below detection limit, mean of three experiments", "result": "at least 9.5 times"}, {"measurement": "Restoration of TUSC3 expression", "setting": "1 and 2.5 μM, hypermethylated MZ6 cell line, concentration-dependent", "result": "restoration of TUSC3 expression"}]}
